One experiment has as its target T1, human ERK2 (Homo sapiens, UniProt P28482).
T1 construct: recombinantly expressed as GST-tagged full-length protein purified from E. coli; GST; purchased Invitrogen PV3311; host or cells: E. coli
As to the kind of experiment: LanthaScreen TR-FRET enzymatic assay, ERK2. Conditions: IC50 values of ERK2 biochemical activity; 5 μM ATP, 400 nM ATF2-GFP substrate. Here is the method:
Compounds were tested in a LanthaScreen™ time-resolved fluorescence energy transfer (TR-FRET) enzymatic assay from Invitrogen. The assay used human ERK2 (Mitogen Activated Kinase 1, Invitrogen, Cat. PV3311) recombinantly expressed as GST-tagged full-length protein purified from E. coli and activated in vitro with MAP2K1. The substrate was a recombinant truncated version (residues 19-96) of ATF2 fused with Green Fluorescent Protein (Invitrogen, Cat. PV4445). Test compounds were prepared and diluted in DMSO in 3-fold serial dilutions to 100× of the final testing concentrations. The compounds were then further diluted to 4× by the kinase reaction buffer (Invitrogen, Cat. PV3189). The enzymatic reaction for compound testing was performed in a white 384-well polypropylene plate (Packard, Cat. 6005214) with a total reaction volume of 10 μl containing 20 ng/ml ERK2, 400 nM substrate, and 5 μM ATP that is around its Km. The assay started with loading 2.5 μl of ERK2 diluted in kinase reaction buffer to wells, followed by addition of equal volume of 4× compounds for 15-min incubation at the room temperature for pre-treatment. The enzymatic reaction was initiated by addition of 5 μl of mixture of the substrate and ATP prepared in kinase reaction buffer. After one hour reaction, 10 μl mixture of EDTA (final 10 mM) and terbium-labeled anti-pATF2 (pThr71) antibody (final 2 nM) (Invitrogen, Cat. PV4451) prepared in TR-FRET antibody dilution buffer (Invitrogen, Cat. PV3574) was added to stop the enzymatic reaction and produce TR-FRET signals. After 30 minutes of incubation at room temperature, the plate was read in Tecan Infinite F200 Pro with the following settings: Excitation 340 nm (30)/Emission1 495 nm (10)/Emission2 520 nm (25). The TR-FRET values were dimensionless numbers that were calculated as the ratio of the acceptor ([…]) signal to the donor (Terbium) signal. Percent of control was calculated as the percentage of compound-treated vs 1% DMSO vehicle-treated. The dose-response curves were generated and the ICsos were calculated by nonlinear sigmoid curve fitting using GraphPad Prism.
The IC50 values of ERK2 biochemical activity for the examples disclosed herein are listed in Table 3, A: ≤10 nM; B: >10 nM and ≤50 nM; C: >50 nM and ≤100 nM; D.>100 nM.

For a further experiment, the system named is Colo205 cell line. As to the kind of experiment: Colo205 cell proliferation assay (MTT assay, WST-8 readout). The conditions noted are these: Homo sapiens; IC50 values of growth inhibition in Colo 205 cells; 72 hours. The experiment is classed as cell-based. Here is the method:
Compounds disclosed herein were tested for the inhibition of ERK2 by a Colo205 cell proliferation assay commonly known as MTT assay. In this assay, a complete media was prepared by adding 10% fetal bovine serum to RPMI-1640 medium (Life technology). Colon cancer cells (Colo205 cell line) were added to each of 88 wells of a 96 well plate at a seeding density of 5,000 cells/well/90 μL. The cells were allowed to attach to the plate by incubating at 37° C. for 24 hours. The compound was dissolved in DMSO (SIGMA). A solution of test compound was prepared in complete media by serial dilution to obtain the following concentrations: 500 μM, 150 μM, 50 μM, 15 μM, 5 μM, 1.5 μM, 0.5 μM, 0.15 μM and 0.05 μM. The test compound solution (10 μL) was added to each of 80 cell-containing wells. The final concentrations of the compound were following: 50 μM, 15 μM, 5 μM, 1.5 μM, 0.5 μM, 0.15 μM, 0.05 μM, 0.015 μM and 0.005 μM. The final concentration of DMSO is 0.5%. To the 8 remaining cell-containing wells, only complete media (containing 0.5% DMSO) was added to form a control group in order to measure maximal proliferation. To the remaining 8 empty wells, complete media was added to for a vehicle control group in order to measure background. The plates were incubated at 37° C. for 72 hours. 10 μL WST-8 solution (DOJINDO, Cell Counting KIT-8) was added to each well. The plates were further incubated at 37° C. for 2 hours, and then read for the absorbance using a microplate reader at 450 nm.
The IC50 values of growth inhibition in Colo 205 cells for Compounds disclosed are listed in Table 3, A′: ≤0.5 μM; B′: >0.5 μM and ≤1 μM; C′: >1.0 μM and ≤5 uM; D′: >5 μM.

T1 sequence (P28482 whole entry): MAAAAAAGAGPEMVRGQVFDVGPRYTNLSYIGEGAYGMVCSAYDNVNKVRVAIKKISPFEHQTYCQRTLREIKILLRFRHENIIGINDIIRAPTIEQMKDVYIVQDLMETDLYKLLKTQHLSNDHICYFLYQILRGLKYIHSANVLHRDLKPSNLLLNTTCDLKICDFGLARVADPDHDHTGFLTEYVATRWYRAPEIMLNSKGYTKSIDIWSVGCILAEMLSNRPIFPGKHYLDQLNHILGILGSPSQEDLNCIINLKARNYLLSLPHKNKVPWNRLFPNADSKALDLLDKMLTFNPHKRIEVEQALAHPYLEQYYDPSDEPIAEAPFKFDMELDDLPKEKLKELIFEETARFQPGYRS

Turning to `O=c1cc(-c2ccc3[nH]nc(-c4cnn(C(F)F)c4)c3c2)ccn1[C@H](CO)c1ccc(F)c(Cl)c1` [Example 51, (S)-1-(1-(3-chloro-4-fluorophenyl)-2-hydroxyethyl)-4-(3-(1-(difluoromethyl)-1H-pyrazol-4-yl)-1H-indazol-5-yl)pyridin-2(1H)-one], the IC50 on human ERK2 was below 10 nM; in the experiment on Colo205 cell line it was at most 500 nM.

`Cc1cc(-c2n[nH]c3ccc(-c4ccn(Cc5cccc(F)c5N)c(=O)c4)cc23)ccn1` [Example 82, 1-(2-amino-3-fluorobenzyl)-4-(3-(2-methylpyridin-4-yl)-1H-indazol-5-yl)pyridin-2(1H)-one]: the IC50 against human ERK2 is below 10 nM; in the experiment with Colo205 cell line it was 500 to 1000 nM.

Regarding `Cn1nccc1-c1n[nH]c2ccc(-c3ccn([C@H](CO)c4cccc(Cl)c4)c(=O)c3)cc12` [Example 7, (S)-1-(1-(3-chlorophenyl)-2-hydroxyethyl)-4-(3-(1-methyl-1H-pyrazol-5-yl)-1H-indazol-5-yl)pyridin-2(1H)-one], the values for the half-maximal inhibitory concentration (IC50) against human ERK2 and with Colo205 cell line were 10 to 50 nM and 1000 to 5000 nM, respectively.

With `Cc1cc(-c2n[nH]c3ccc(-c4ccn(Cc5cccc(OC(F)(F)F)c5)c(=O)c4)cc23)ccn1` [Example 67, 4-(3-(2-methylpyridin-4-yl)-1H-indazol-5-yl)-1-(3-(trifluoromethoxy)benzyl)pyridin-2(1H)-one], the IC50 against human ERK2 was below 10 nM; with Colo205 cell line, 1000 to 5000 nM.

For the compound `CC(C)(O)c1cc(-c2n[nH]c3ccc(-c4ccn([C@H](CO)c5ccc(F)c(Cl)c5)c(=O)c4)cc23)ccn1` [Example 21], the 50% inhibitory concentration (IC50) at human ERK2 is below 10 nM; in the experiment with Colo205 cell line, 1000 to 5000 nM.

On to `Cc1cc(-c2n[nH]c3cnc(-c4ccn(Cc5ccnc(C(F)(F)F)c5)c(=O)c4)cc23)ccn1` [Example 144, 4-(3-(2-methylpyridin-4-yl)-1H-pyrazolo[3,4-c]pyridin-5-yl)-1-((2-(trifluoromethyl)pyridin-4-yl)methyl)pyridin-2(1H)-one], for which the figures for the IC50 against human ERK2 and in the experiment on Colo205 cell line were below 10 nM and 1000 to 5000 nM, respectively.

In the case of `Cc1cc(-c2n[nH]c3ccc(-c4ccn(Cc5ccc(F)c(Br)c5)c(=O)c4)cc23)ccn1` [Example 56, 1-(3-bromo-4-fluorobenzyl)-4-(3-(2-methylpyridin-4-yl)-1H-indazol-5-yl)pyridin-2(1H)-one], the figures for the IC50 at human ERK2 and with Colo205 cell line were below 10 nM and 500 to 1000 nM, respectively.

Take `Cc1cc(-c2n[nH]c3ncc(-c4ccn([C@H](CO)c5ccc(F)c(Cl)c5)c(=O)c4)cc23)ccn1` [Example 101, (S)-1-(1-(3-chloro-4-fluorophenyl)-2-hydroxyethyl)-4-(3-(2-methylpyridin-4-yl)-1H-pyrazolo[3,4-b]pyridin-5-yl)pyridin-2(1H)-one]: the IC50 against human ERK2 was below 10 nM; in the experiment with Colo205 cell line, at most 500 nM.

As for `Cc1cc(-c2n[nH]c3ccc(-c4ccn(Cc5ccc(C#N)cc5)c(=O)c4)cc23)ccn1` [Example 64, 4-((4-(3-(2-methylpyridin-4-yl)-1H-indazol-5-yl)-2-oxopyridin-1(2H)-yl)methyl)benzonitrile], the values for the IC50 on human ERK2 and in the experiment on Colo205 cell line were below 10 nM and 1000 to 5000 nM, respectively.

In the case of `Cc1cc(-c2n[nH]c3ccc(-c4ccn(C(C)c5ccnc(C(F)(F)F)c5)c(=O)c4)cc23)ccn1` (stereo not shown) [Example 142, 4-(3-(2-methylpyridin-4-yl)-1H-indazol-5-yl)-1-(1-(2-(trifluoromethyl)pyridin-4-yl)ethyl)pyridin-2(1H)-one], the IC50 on human ERK2 was below 10 nM; in the experiment with Colo205 cell line, at most 500 nM.

For the compound `C[C@@H](c1cc(F)cc(Br)c1)n1ccc(-c2ccc3[nH]nc(-c4cnn(C)c4)c3c2)cc1=O` (single isomer, unassigned) [Example 96A], the IC50 is below 10 nM against human ERK2 and 1000 to 5000 nM in the experiment with Colo205 cell line.

For `Cn1cc(-c2n[nH]c3ccc(-c4ccn([C@H](CO)c5cc(F)cc(Br)c5)c(=O)c4)cc23)cn1` [Example 39, (S)-1-(1-(3-bromo-5-fluorophenyl)-2-hydroxyethyl)-4-(3-(1-methyl-1H-pyrazol-4-yl)-1H-indazol-5-yl)pyridin-2(1H)-one], the 50% inhibitory concentration (IC50) is below 10 nM on human ERK2 and at most 500 nM in the experiment on Colo205 cell line.

In the case of `Cc1cc(-c2n[nH]c3ccc(-c4cc[nH]c(=O)c4)cc23)ccn1` [Example 29, 4-(3-(2-methylpyridin-4-yl)-1H-indazol-5-yl)pyridin-2(1H)-one], the figures for the IC50 against human ERK2 and in the experiment with Colo205 cell line were below 10 nM and 1000 to 5000 nM, respectively.

Regarding `CC(C)Oc1ccc(-c2n[nH]c3ccc(-c4ccn([C@H](CO)c5cccc(I)c5)c(=O)c4)cc23)cn1` [Example 48, (S)-1-(2-hydroxy-1-(3-iodophenyl)ethyl)-4-(3-(6-isopropoxypyridin-3-yl)-1H-indazol-5-yl)pyridin-2(1H)-one], the 50% inhibitory concentration (IC50) at human ERK2 is below 10 nM; in the experiment on Colo205 cell line it was 500 to 1000 nM.

Consider `CC(C)Oc1ccc(-c2n[nH]c3ccc(-c4ccn([C@H](CO)c5ccc(F)c(Cl)c5)c(=O)c4)cc23)cn1` [Example 34, (S)-1-(1-(3-chloro-4-fluorophenyl)-2-hydroxyethyl)-4-(3-(6-isopropoxypyridin-3-yl)-1H-indazol-5-yl)pyridin-2(1H)-one], for which the concentration for half-maximal inhibition (IC50) on human ERK2 was 10 to 50 nM; in the experiment with Colo205 cell line, 1000 to 5000 nM.

Take `Cn1nccc1Nc1n[nH]c2ccc(-c3ccn([C@H](CO)c4cccc(Cl)c4)c(=O)c3)cc12` [Example 12, (S)-1-(1-(3-chlorophenyl)-2-hydroxyethyl)-4-(3-((1-methyl-1H-pyrazol-5-yl)amino)-1H-indazol-5-yl)pyridin-2(1H)-one]: the IC50 lay within 10 to 50 nM against human ERK2 and 1000 to 5000 nM with Colo205 cell line.

`O=c1cc(-c2ccc3[nH]nc(C4CCOCC4)c3c2)ccn1[C@H](CO)c1cc(F)cc(Br)c1` [Example 145, (S)-1-(1-(3-bromo-5-fluorophenyl)-2-hydroxyethyl)-4-(3-(tetrahydro-2H-pyran-4-yl)-1H-indazol-5-yl)pyridin-2(1H)-one]: the IC50 on human ERK2 is below 10 nM; in the experiment on Colo205 cell line, 500 to 1000 nM.

Regarding `Cc1cc(-c2n[nH]c3ccc(-c4ccn([C@H](CO)c5cccc(Cl)c5F)c(=O)c4)cc23)ccn1` [Example 35, (S)-1-(1-(3-chloro-2-fluorophenyl)-2-hydroxyethyl)-4-(3-(2-methylpyridin-4-yl)-1H-indazol-5-yl)pyridin-2(1H)-one], the IC50 at human ERK2 is below 10 nM; with Colo205 cell line, at most 500 nM.

Regarding `O=c1cc(-c2ccc3[nH]nc(-c4ccc(F)cn4)c3c2)ccn1Cc1ccnc(C(F)(F)F)c1` [Example 123, 4-(3-(5-fluoropyridin-2-yl)-1H-indazol-5-yl)-1-((2-(trifluoromethyl)pyridin-4-yl)methyl)pyridin-2(1H)-one], the results for the half-maximal inhibitory concentration (IC50) against human ERK2 and with Colo205 cell line were 10 to 50 nM and above 5000 nM, respectively.

As to `Cc1cc(-c2n[nH]c3ccc(-c4ccn(Cc5cccc(C#N)c5)c(=O)c4)cc23)ccn1` [Example 71, 3-((4-(3-(2-methylpyridin-4-yl)-1H-indazol-5-yl)-2-oxopyridin-1(2H)-yl)methyl)benzonitrile], the values for the IC50 against human ERK2 and in the experiment on Colo205 cell line were below 10 nM and 1000 to 5000 nM, respectively.

Usually IC50 stands for the concentration at which inhibition is half-maximal. High values mean lower potency, low ones higher potency.

Source of the values: patent US11242334B2, “Heterocyclic compounds as kinase inhibitors, compositions comprising the heterocyclic compound, and methods of use thereof” (JS INNOPHARM (SHANGHAI) LTD, priority 2017, dated 2022).
